# Laboratory results as given in ChEMBL document CHEMBL1201862, “PubChem BioAssay data set” (2004).
#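 Briefly, cells in 96-well plates were exposed to five compound concentrations for 48 h, and endpoints were estimated by linear interpolation. Abbreviation: GI50, concentration required for 50% inhibition of growth.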 Active and inactive are the calls of the source. No stated cut-off is given here; in the data, active = GI50 up to about 1.1 µM and inactive = higher.
# Experiments:
# Assay in all cases: DTP human tumour cell line panel, 48 h
# [1] = test system: A498
# [2] = test system: A549
# [3] = test system: CCRF-CEM
# [4] = test system: DMS-273
# [5] = test system: EKVX
# [6] = test system: HL-60
# [7] = test system: HOP-62
# [8] = test system: HOP-92
# [9] = test system: HT-29
# [10] = test system: IGROV-1
# [11] = test system: K562
# [12] = test system: KM12
# [13] = test system: M14
# [14] = test system: MOLT-4
# [15] = test system: NCI-H226
# [16] = test system: NCI-H23
# [17] = test system: NCI-H460
# [18] = test system: NCI-H522
# [19] = test system: OVCAR-5
# [20] = test system: RXF 393
# [21] = test system: SF-268
# [22] = test system: SK-MEL-28
# [23] = test system: SK-OV-3
# [24] = test system: SNB-19
# [25] = test system: SNB-78
# [26] = test system: SR
# [27] = test system: TK-10
# [28] = test system: U-251
# [29] = test system: UACC-62
# [30] = test system: UO-31
# [31] = test system: 786-0
# [32] = test system: ACHN
# [33] = test system: BT-549
# [34] = test system: CAKI-1
# [35] = test system: COLO 205
# [36] = test system: DU-145
# [37] = test system: HCC 2998
# [38] = test system: HCT-116
# [39] = test system: HCT-15
# [40] = test system: Hs-578T
# [41] = test system: LOX IMVI
# [42] = test system: MCF7
# [43] = test system: MDA-MB-231
# [44] = test system: MDA-MB-435
# [45] = test system: MDA-N
# [46] = test system: Malme-3M
# [47] = test system: NCI/ADR-RES
# [48] = test system: OVCAR-3
# [49] = test system: OVCAR-4
# [50] = test system: OVCAR-8
# [51] = test system: PC-3
# [52] = test system: RPMI-8226
# [53] = test system: SF-295
# [54] = test system: SF-539
# [55] = test system: SK-MEL-2
# [56] = test system: SK-MEL-5
# [57] = test system: SN12C
# [58] = test system: SNB-75
# [59] = test system: SW-620
# [60] = test system: T47D
# [61] = test system: UACC-257
# [62] = test system: DMS-114
# [63] = test system: M19-MEL
structure (smiles),measurement,setting,value
COC(=O)CN1CCS/C1=N/C#N,GI50,[1],> 100 µM (inactive)
same,GI50,[2],> 100 µM (inactive)
same,GI50,[3],> 100 µM (inactive)
same,GI50,[4],> 100 µM (inactive)
same,GI50,[5],> 100 µM (inactive)
same,GI50,[6],> 100 µM (inactive)
same,GI50,[7],> 100 µM (inactive)
same,GI50,[8],> 100 µM (inactive)
same,GI50,[9],> 100 µM (inactive)
same,GI50,[10],> 100 µM (inactive)
same,GI50,[11],> 100 µM (inactive)
same,GI50,[12],> 100 µM (inactive)
same,GI50,[13],> 100 µM (inactive)
same,GI50,[14],> 100 µM (inactive)
same,GI50,[15],> 100 µM (inactive)
same,GI50,[16],> 100 µM (inactive)
same,GI50,[17],> 100 µM (inactive)
same,GI50,[18],> 100 µM (inactive)
same,GI50,[19],> 100 µM (inactive)
same,GI50,[20],> 100 µM (inactive)
same,GI50,[21],> 100 µM (inactive)
same,GI50,[22],> 100 µM (inactive)
same,GI50,[23],> 100 µM (inactive)
same,GI50,[24],> 100 µM (inactive)
same,GI50,[25],> 100 µM (inactive)
same,GI50,[26],> 100 µM (inactive)
same,GI50,[27],> 100 µM (inactive)
same,GI50,[28],> 100 µM (inactive)
same,GI50,[29],> 100 µM (inactive)
same,GI50,[30],> 100 µM (inactive)
C/C=C/C(O)P(=O)(OC)OC (centres undefined),GI50,[31],0.173 µM (active)
same,GI50,[1],0.316 µM (active)
same,GI50,[2],0.274 µM (active)
same,GI50,[32],0.344 µM (active)
same,GI50,[33],0.594 µM (active)
same,GI50,[34],0.589 µM (active)
same,GI50,[3],0.227 µM (active)
same,GI50,[35],0.184 µM (active)
same,GI50,[36],0.34 µM (active)
same,GI50,[5],0.308 µM (active)
same,GI50,[37],0.27 µM (active)
same,GI50,[38],0.254 µM (active)
same,GI50,[39],0.309 µM
same,GI50,[6],0.256 µM (active)
same,GI50,[7],0.628 µM (active)
same,GI50,[8],< 0.0385 µM (active)
same,GI50,[9],0.33 µM (active)
same,GI50,[40],0.213 µM (active)
same,GI50,[10],0.275 µM (active)
same,GI50,[11],0.318 µM (active)
same,GI50,[12],0.278 µM (active)
same,GI50,[41],0.187 µM (active)
same,GI50,[13],0.207 µM (active)
same,GI50,[42],0.269 µM (active)
same,GI50,[43],0.428 µM (active)
same,GI50,[44],0.267 µM (active)
same,GI50,[45],0.217 µM (active)
same,GI50,[14],0.3 µM (active)
same,GI50,[46],0.296 µM (active)
same,GI50,[15],0.332 µM (active)
same,GI50,[16],0.307 µM (active)
same,GI50,[17],0.272 µM (active)
same,GI50,[18],0.214 µM (active)
same,GI50,[47],0.473 µM (active)
same,GI50,[48],0.255 µM (active)
same,GI50,[49],0.335 µM (active)
same,GI50,[19],0.284 µM (active)
same,GI50,[50],0.451 µM (active)
same,GI50,[51],0.407 µM (active)
same,GI50,[52],0.162 µM (active)
same,GI50,[20],0.215 µM (active)
same,GI50,[21],0.263 µM (active)
same,GI50,[53],0.366 µM (active)
same,GI50,[54],0.279 µM (active)
same,GI50,[22],0.32 µM (active)
same,GI50,[55],0.324 µM (active)
same,GI50,[56],0.196 µM (active)
same,GI50,[23],1.03 µM (active)
same,GI50,[57],0.4 µM (active)
same,GI50,[24],0.436 µM (active)
same,GI50,[58],0.312 µM (active)
same,GI50,[26],0.257 µM (active)
same,GI50,[59],0.277 µM (active)
same,GI50,[60],0.334 µM (active)
same,GI50,[27],0.366 µM (active)
same,GI50,[28],0.307 µM (active)
same,GI50,[61],0.256 µM (active)
same,GI50,[29],0.27 µM (active)
same,GI50,[30],0.164 µM (active)
COc1cc(O)c2c(c1C)C(C)(O)c1c(C)coc1C2=O (centres undefined),GI50,[1],89.7 µM (inactive)
same,GI50,[2],> 100 µM (inactive)
same,GI50,[32],> 100 µM (inactive)
same,GI50,[62],> 100 µM (inactive)
same,GI50,[5],> 100 µM (inactive)
same,GI50,[38],> 100 µM (inactive)
same,GI50,[6],57.7 µM (inactive)
same,GI50,[7],> 100 µM (inactive)
same,GI50,[8],> 100 µM (inactive)
same,GI50,[9],> 100 µM (inactive)
same,GI50,[10],> 100 µM (inactive)
same,GI50,[12],> 100 µM (inactive)
same,GI50,[13],> 100 µM (inactive)
same,GI50,[63],> 100 µM (inactive)
same,GI50,[15],99.8 µM (inactive)
same,GI50,[16],> 100 µM (inactive)
same,GI50,[17],> 100 µM (inactive)
same,GI50,[19],> 100 µM (inactive)
same,GI50,[50],> 100 µM (inactive)
same,GI50,[20],> 100 µM (inactive)
same,GI50,[53],> 100 µM (inactive)
same,GI50,[22],> 100 µM (inactive)
same,GI50,[23],> 100 µM (inactive)
same,GI50,[24],> 100 µM (inactive)
same,GI50,[25],> 100 µM (inactive)
same,GI50,[26],> 100 µM (inactive)
same,GI50,[27],> 100 µM (inactive)
same,GI50,[28],> 100 µM (inactive)
same,GI50,[61],> 100 µM (inactive)
same,GI50,[29],74.1 µM (inactive)
same,GI50,[30],> 100 µM (inactive)
O=C1C(N2CCN(CCOCCO)CC2)=C(Cl)C(=O)c2ncccc21,GI50,[31],21.4 µM (inactive)
same,GI50,[1],> 10 µM (inactive)
same,GI50,[2],> 10 µM (inactive)
same,GI50,[32],19.1 µM (inactive)
same,GI50,[33],4.89 µM (inactive)
same,GI50,[34],17.3 µM (inactive)
same,GI50,[3],1.92 µM (inactive)
same,GI50,[35],8.28 µM (inactive)
same,GI50,[36],52.7 µM (inactive)
same,GI50,[5],19.6 µM (inactive)
same,GI50,[37],> 10 µM (inactive)
same,GI50,[38],5.71 µM (inactive)
same,GI50,[39],18.1 µM
same,GI50,[6],3.06 µM (inactive)
same,GI50,[7],> 10 µM (inactive)
same,GI50,[8],2.62 µM (inactive)
same,GI50,[9],22.6 µM (inactive)
same,GI50,[40],> 10 µM (inactive)
same,GI50,[10],16.9 µM (inactive)
same,GI50,[11],3.2 µM (inactive)
same,GI50,[12],> 10 µM (inactive)
same,GI50,[41],12.7 µM (inactive)
same,GI50,[13],20.8 µM (inactive)
same,GI50,[42],3.78 µM (inactive)
same,GI50,[43],19.2 µM (inactive)
same,GI50,[44],1.88 µM (inactive)
same,GI50,[45],1.97 µM (inactive)
same,GI50,[14],2.37 µM (inactive)
same,GI50,[46],8.77 µM (inactive)
same,GI50,[15],> 10 µM (inactive)
same,GI50,[16],20.3 µM (inactive)
same,GI50,[17],75.2 µM (inactive)
same,GI50,[18],2.08 µM (inactive)
same,GI50,[47],37.4 µM (inactive)
same,GI50,[48],18.5 µM (inactive)
same,GI50,[49],20.3 µM (inactive)
same,GI50,[19],24.5 µM (inactive)
same,GI50,[50],18.1 µM (inactive)
same,GI50,[51],20.7 µM (inactive)
same,GI50,[52],19 µM (inactive)
same,GI50,[20],20 µM (inactive)
same,GI50,[21],20.6 µM (inactive)
same,GI50,[53],> 10 µM (inactive)
same,GI50,[54],21.1 µM (inactive)
same,GI50,[22],22.2 µM (inactive)
same,GI50,[55],20.9 µM (inactive)
same,GI50,[56],16.6 µM (inactive)
same,GI50,[23],> 10 µM (inactive)
same,GI50,[57],19.5 µM (inactive)
same,GI50,[24],> 10 µM (inactive)
same,GI50,[58],38.3 µM (inactive)
same,GI50,[26],> 10 µM (inactive)
same,GI50,[59],23 µM (inactive)
same,GI50,[60],2.58 µM (inactive)
same,GI50,[27],29.4 µM (inactive)
same,GI50,[28],18.7 µM (inactive)
same,GI50,[61],22 µM (inactive)
same,GI50,[29],21.5 µM (inactive)
same,GI50,[30],17.7 µM (inactive)
